Measured values as given in US7247714B2, “Protection against oxidative stress and inflammation by a cytoprotective response element” (Atherogenics, Inc., priority 2001, dated 2007).
Entries after “also recorded” stand apart in the source; their conditions may differ.

Legend:
[1] = tested on: p3xCPRE/Luc; experiment: Activation of p3xCPRE/Luc by small molecular weight organic compounds (Table 6); format: cell-based, human; conditions: luciferase activity 16 hours after exposure
Protocol: In the in vitro assay system described above, a stable HeLa cell line was generated that contains a stably-integrated copy of the CPRE-Luc gene.
HMECs and HeLa cells were transiently transfected with 1 μg of 3xCPRE-Luc and 0.1 μg of pRL-SV40. One day after transfection, cells were treated with the compounds listed in Table 6 Luciferase activities were determined 16 hours after exposure to the compounds. To generate stable HeLa cell lines that contain a stably-integrated copy of the CPRE-Luc gene, HeLa cells were transfected with p3xCPRE-Luc plus pcDNA-LacZ-Hyg (an expression vector containing the hygromycin drug resistance gene) using SuperFeet transfection reagent. Two days after transfection, cells were cultured in hygromycin (400 μg/ml)-containing selection medium until individual colonies were identified. The colonies were expanded and the presence of CPRE-Luc-containing clones was examined by inducible luciferase activity. […]

[2] = tested on: p3xCPRE/Luc; experiment: p3xCPRE/Luc reporter, transient transfection in HMEC cells; format: cell-based, human; conditions: Compound A 10 μM
Protocol: (§1) In an effort to determine the utility of the CPRE-Luc reporter construct for the identification of small molecular weight compounds that activate the CPRE, the p3xCPRE/Luc reporter was transiently transfected into both HeLa and endothelial cells (HMECs). […] Similar results were obtained in HeLa cells with both t-BHQ and compound A (FIG. 12b).
(§2) HMECs and HeLa cells were transiently transfected with 1 μg of 3xCPRE-Luc and 0.1 μg of pRL-SV40. One day after transfection, cells were treated with t-BHQ or compound A. Luciferase activities were determined 16 hours after exposure to tBHQ. To generate stable HeLa cell lines that contain a stably-integrated copy of the CPRE-Luc gene, HeLa cells were transfected with p3xCPRE-Luc plus pcDNA-LacZ-Hyg (an expression vector containing the hygromycin drug resistance gene) using SuperFect transfection reagent. Two days after transfection, cells were cultured in hygromycin (400 μg/ml)-containing selection medium until individual colonies were identified. The colonies were expanded and the presence of CPRE-Luc-containing clones was examined by inducible luciferase activity. All experiments are an average of at least three independent determinations for each experimental sample.

[3] = tested on: p3xCPRE/Luc; experiment: p3xCPRE/Luc reporter, transient transfection in HeLa cells; format: cell-based, human
Protocol: HMEC cells (passage 20) and HeLa cells were seeded into 6 well plates and were grown to approximately 60-70% confluency. Cells were transfected with 2 μg (HeLa) or 1 μg (HMEC) each of p3xCPRE/Luc reporter and Nrf-2 expression vector (an expression vector containing the full-length murine Nrf-2 gene under the control of the CMV promoter (Asakura & Karino (1990) Circ Res, 66:1045-1066). Cells were cultured for an additional 48 hours, and luciferase activity was determined (Promega). An average of at least three independent determinations were made for each experimental sample. Results are expressed as ratio of firefly/renilla luciferase.
as §1, §2

[4] = tested on: CPRE promoter; experiment: Stable HeLa cell line with stably-integrated CPRE-Luc gene; format: cell-based, human
Protocol: Although transient transfection methods are useful for understanding molecular mechanisms of gene expression and cellular biology, they are not suitable for high-throughput screening of libraries of compounds. Therefore, a stable HeLa cell line was generated that contains a stably-integrated copy of the CPRE-Luc gene.
as §2

[5] = tested on: VCAM-1; experiment: TNF-α-activated cell surface expression of VCAM-1 in cell culture models; format: cell-based; conditions: read-out: IC50, inhibition of TNF-α-activated cell surface expression of VCAM-1
[6] = tested on: murine model of allergen-induced peritonitis; experiment: Murine model of allergen-induced peritonitis (Type 1 hypersensitivity), eosinophil recruitment; format: in vivo, mouse; conditions: Compound A 50 mg/kg/d intravenous, 1 or 4 hours prior to ovalbumin challenge
Protocol: To evaluate the anti-inflammatory potential of compound A, a murine model of Type 1 hypersensitivity was used. In this model mice are sensitized to ovalbumin and subsequently challenged with ovalbumin by intraperitoneal injection. This leads to eosinophil recruitment and accumulation in the peritoneal cavity 24-48 hours after the challenge.
6-8 week old Balb/c mice (weighing 20-30 g) were given subcutaneous injections of ovalbumin in alum (0.4 ml of 100 μg ovalbumin and 3.3 mg of Alum Inject) on days 0 and 7. The mice were challenged on day 14 with an intraperitoneal injection of ovalbumin (10 μg in 0.2 ml saline). The mice were sacrificed and peritoneal lavage fluid collected 48 hours after the challenge. The peritoneal fluid was concentrated and slide smears made using a cytospin centrifuge. Slides were stained with Diff-Quik and differential counts obtained by counting 300 cells. Compound A was administered by intravenous injection, in a vehicle composed of 95% Liposyn and 5% Tween 20, 4 or 1 hour prior to challenge. Compound A was compared to dexamethosone administered orally at a dose of 2.5 mg/kg/d.
In a common allergic inflammation, balb/C mice were divided into two groups: control/vehicle and Compound G treated. They were then sensitized to ovalbumin on days 0 and 7 with a subcutaneous injection of ovalbumin absorbed in aluminum hydroxide. The treated group was dosed i.v. 50 mg/kg in liposyn/tween and vehicle one day prior to challenge. The mice were then challenged with an intraperitoneal injection of ovalbumin on day 14 and sacrificed 48 hrs post-challenge. Peritoneal fluid was collected and spun down onto slides. Slides were stained with DiffQuik and a differential performed.

[7] = tested on: murine model of aerosolized ovalbumin-induced asthma; experiment: Mouse asthma model, airway eosinophilia and hyperreactivity; format: in vivo
Protocol: Male BALB-C mice, 6 weeks of age, were randomly assigned to one of following groups: ova/ova, vehicle control, dexamethasone (3 mg/kg) treatment, and Compound A. Animals were weighed on day 0, 7, 12 and 14 and were given access to food and water ad libidum. Mice were sensitized intraperitoneally with 8 μg of ovalbumin and 1 mg of aluminum hydroxide on Day 0 and Day 5. The animals were exposed to aerosolized ovalbumin (0.5%) twice on Day 12 (1 hr & 10 minutes per exposure). The ovalbumin exposures were separated by at least 4 hours. Differentials were performed on bronchoaveolar lavage fluid on Day 14 to determine % eosinophils. Compound A was orally administered daily at a dose of 300 mg/kg from time of sensitization to termination of study to the Compound A group.

[8] = tested on: methylated BSA-induced model of delayed type hypersensitivity; experiment: Mouse delayed type hypersensitivity model (methylated BSA), paw swelling; format: in vivo; conditions: Compound A 100 mg/kg intraperitoneal at -24, -1 and +6 hrs from challenge; paw weight 24 hours later
Protocol: Balb/C mice were divided into two groups: control/vehicle and treated. They were sensitized intradermally on day 0 with methylated BSA (metBSA), and then challenged with metBSA on day 7 in the right hind paw. Compound A was administered at a dose of 100 mg/kg to the treated group by intraperitoneal injection −24, −1 and +6 hrs from the time of challenge. All animals were sacrificed 24 hours later and the left and right hind paws weighed. The left hind paw weight was subtracted from the right hind paw to give the paw weight increase.

- CPRE Activity: concentration to achieve a two-fold induction of CPRE activity over control [1]: 4.5 µM
- IC50 [5]: ~1400 nM
Compound: COc1cc(OC)c(-c2cc3ccccc3s2)cc1/C=C/C(=O)c1cc(OC)c(OC)c(OC)c1 [Compound A, 3-(5-Benzo-[b]-thiophene-2-yl-2,4-dimethoxy-phenyl)-1-(3,4,5-trimethoxy-phenyl)propenone]
- p3xCPRE/Luc activity (induction of transcription from the CPRE) [2]: greater than two-fold; also recorded: significantly increased
- p3xCPRE/Luc activity ([3]; Compound A 10 μM): significantly increased
- p3xCPRE/Luc activity ([3]; compound A 15 μM (FIG. 9c)): significantly increased
- p3xCPRE/Luc activity, concentration-response ([3]; transient transfection, 5, 10 and 20 μM (FIG. 13)): dose-dependent response; also recorded: significantly increased
- CPRE/Luc activity, percent increase over control (vehicle) levels, concentration-response ([4]; Hela cells, 1.25, 2.5, 5, 10, 20 and 40 μM (FIG. 14)): significantly elevated in a concentration-dependent manner
- Concentration of maximum activation of the CPRE promoter ([4]; stable HeLa cell line (FIG. 14)): approximately 20 μM
- Eosinophil levels in peritoneal fluid (percent eosinophils) [6]: significantly decreased
- Eosinophil levels in peritoneal fluid (percent eosinophils) ([6]; listed as compound A): significantly significant reduction
- Inhibition of eosinophilia in bronchoaveolar lavage fluid compared with vehicle controls ([7]; Compound A 300 mg/kg oral daily, Day 14, p<0.05): 48%
- Eosinophil levels in bronchoaveolar lavage fluid ([7]; Compound A 300 mg/kg/d oral): significantly decreased
- Lung function (airway hyperreactivity to methacholine) ([7]; Compound A 300 mg/kg/d oral, 300 mg/kg/day): significantly improved lung function
- Inhibition of paw swelling compared with the vehicle controls [8]: 79%
